Assay results published in US20260151375A1, “CDK2 INHIBITORS AND METHODS OF USING THE SAME” (Cedilla Therapeutics, Inc., priority 2022, published 2026).
Like-named read-outs stand apart in the source and are kept apart here.

Columns and labels:
[1] = test system: Kuramochi cells; experiment: IncuCyte Kuramochi Assay (cell proliferation); type: cell-based; settings: Kuramochi cells labeled with mApple-H2B, cell count, read-out: IncuCyte - Kuramochi RB-WT: IC50
Outline: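 Cells imaged at 0 and 72 h after compound treatment (10 points, ½ log dilution, 20 μM top), with fluorescent nuclei counted. Fold change in count was normalized to DMSO wells and fitted to dose-response curves to give GI50.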

[2] = biological target: T1, CDK2/Cyclin E1 (Homo sapiens, UniProt P24941); experiment: ADPGLO (CDK2/E1-37 C), ADP-Glo Luminescent Kinase Assay; type: biochemical; settings: 0.18 nM CDK2/Cyclin E1, 100 μM ATP, Histone H1, 37° C.
T1 construct: purchased 14-475
Method: Inhibition of CDK2/Cyclin E1 activity by the presence of small molecules was evaluated using ADP-Glo Luminescent Kinase Assay (Promega). Activated CDK2/Cyclin E1 was incubated with its substrate Histone H1 (SignalChem H10-54N) in the kinase reaction buffer (100 μM ATP, 50 mM HEPES pH 7.5, 10 mM MgCl2, 1 mM EDTA, 2 mM DTT, 0.01% Brij35, 0.5 mg/mL BSA). Luminescence was recorded with an Envision plate reader (PerkinElmer).
Dose titrations of inhibitors in 100% DMSO were combined with 0.36 nM CDK2/Cyclin E1 in reaction buffer. The mixtures were incubated for 60 minutes at 37° C. before the addition of ATP and Histone H1 substrate to initiate the kinase reaction. The final conditions were 0.18 nM CDK2/Cyclin E1, 100 μM ATP, and 1.5 μM Histone H1. The reactions were incubated at 37° C. for 90 minutes before being stopped with the addition of ADP-Glo reagent. This mixture was incubated at room temperature for 60 minutes before Kinase Detection Solution is added to generate luminescence. The stopped reactions were analyzed on an Envision plate reader. The conversion ratios were normalized to yield % activity, plotted against compound concentration, and fit to a four-parameter equation to determine the IC50 for each compound.

[3] = biological target: T1, CDK2/Cyclin E1; experiment: Caliper Assay (LabChip EZ Reader mobility shift assay), inhibition of CDK2/Cyclin E1 activity; type: biochemical; settings: 2.5 nM CDK2/Cyclin E1(14-475), 100 μM ATP, 30 min preincubation; read-out: Caliper Assay (CDK2/CCNE1): IC50
Outline: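 Compounds were preincubated 30 min with CDK2/Cyclin E1(14-475), then run for 100 min with 2.5 nM enzyme, 100 μM ATP and 1.5 μM 5-FAM-QSPKKG peptide in HEPES pH 7.5 (final). Reactions were EDTA-stopped and substrate-to-product conversion read by mobility shift. IC50 came from a four-parameter fit.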

IC50 [2] [µM]	IC50 [3] [µM]	SMILES	IC50 ([1]; 72 h) [µM]	IC50 ([1]; 72 hours) [µM]
> 10		O=C(c1cnn(Cc2cccc3c2CCNC3)c1)N1CC(c2nnc(C(F)(F)c3ccc(Cl)c(Cl)c3)o2)C2(C1)CN(C(=O)C1(C(F)(F)F)CC1)C2 (stereo not drawn) [I-106]	5 to 10	
≤ 0.5		O=C(c1cnc(O)cn1)N1CC(c2nnc(C(COCc3ccccc3)c3cccc(C4CCCCC4)c3)o2)C2(C1)CN(C(=O)C1(C(F)(F)F)CC1)C2 (stereo not drawn) [I-107, (8-(5-(2-(benzyloxy)-1-(3-cyclohexylphenyl)ethyl)-1,3,4-oxadiazol-2-yl)-2-(1-(trifluoromethyl)cyclopropane-1-carbonyl)-2,6-diazaspiro[3.4]octan-6-yl)(5-hydroxypyrazin-2-yl)methanone]	0.5 to 5	
0.5 to 5		O=C(c1cnn(Cc2cccc3[nH]cnc23)c1)N1CC(c2nnc(C(F)(F)c3ccc(Cl)c(Cl)c3)o2)C2(C1)CN(C(=O)C1(C(F)(F)F)CC1)C2 (stereo not drawn) [I-108, (1-((1H-benzo[d]imidazol-4-yl)methyl)-1H-pyrazol-4-yl)(8-(5-((3,4-dichlorophenyl)difluoromethyl)-1,3,4-oxadiazol-2-yl)-2-(1-(trifluoromethyl)cyclopropane-1-carbonyl)-2,6-diazaspiro[3.4]octan-6-yl)methanone]	5 to 10	
5 to 10		CC(c1nc(C2CN(C(=O)c3cnn(CC(=O)O)c3)CC23CN(C(=O)[C@H]2CC2(C)C)C3)no1)n1ccc(C2CCCC2)n1 (stereo partly drawn) [I-110, 2-(4-(8-(5-(1-(3-cyclopentyl-1H-pyrazol-1-yl)ethyl)-1,2,4-oxadiazol-3-yl)-2-((S)-2,2-dimethylcyclopropane-1-carbonyl)-2,6-diazaspiro[3.4]octane-6-carbonyl)-1H-pyrazol-1-yl)acetic acid]	> 10	
0.5 to 5		CC(c1nc(C2CN(C(=O)c3cnn(Cc4nnnn4C)c3)CC23CN(C(=O)[C@H]2CC2(C)C)C3)no1)n1ccc(C2CCCC2)n1 (stereo partly drawn) [I-111, (8-(5-(1-(3-cyclopentyl-1H-pyrazol-1-yl)ethyl)-1,2,4-oxadiazol-3-yl)-2-((S)-2,2-dimethylcyclopropane-1-carbonyl)-2,6-diazaspiro[3.4]octan-6-yl)(1-((1-methyl-1H-tetrazol-5-yl)methyl)-1H-pyrazol-4-yl)methanone]	5 to 10	
> 10		O=C(c1cncc(O)n1)N1CC(c2nnc(C(F)(F)c3ccc(Cl)c(Cl)c3)o2)C2(C1)CN(C(=O)[C@H]1CC1(F)F)C2 (stereo partly drawn) [I-112, (8-(5-((3,4-dichlorophenyl)difluoromethyl)-1,3,4-oxadiazol-2-yl)-2-((R)-2,2-difluorocyclopropane-1-carbonyl)-2,6-diazaspiro[3.4]octan-6-yl)(6-hydroxypyrazin-2-yl)methanone]	> 10	
0.5 to 5		CC(c1nc(C2CN(C(=O)c3cnn(Cc4ccc(C(O)C(F)(F)F)cc4)c3)CC23CN(C(=O)[C@H]2CC2(C)C)C3)no1)n1ccc(C2CCCC2)n1 (stereo partly drawn) [I-113]	0.5 to 5	
0.5 to 5		CC(c1nc(C2CN(C(=O)c3cnc(O)cn3)CC23CN(C(=O)C2(C(F)(F)F)CC2)C3)no1)n1ccc(C2CCOCC2)n1 (stereo not drawn) [I-115]	5 to 10	
> 10		CC(c1nc(C2CN(C(=O)c3cnc(O)cn3)CC23CN(C(=O)[C@H]2CC2(F)F)C3)no1)n1ccc(C2CCOCC2)n1 (stereo partly drawn) [I-116, (2-((R)-2,2-difluorocyclopropane-1-carbonyl)-8-(5-(1-(3-(tetrahydro-2H-pyran-4-yl)-1H-pyrazol-1-yl)ethyl)-1,2,4-oxadiazol-3-yl)-2,6-diazaspiro[3.4]octan-6-yl)(5-hydroxypyrazin-2-yl)methanone]	> 10	
0.5 to 5		COC(=O)c1ccc(Cn2cc(C(=O)N3CC(c4noc(C(C)n5ccc(C6CCCC6)n5)n4)C4(C3)CN(C(=O)[C@H]3CC3(C)C)C4)cn2)cn1 (stereo partly drawn) [I-117]	> 10	
0.5 to 5		CC(c1nc(C2CN(C(=O)c3cnn(CC#N)c3)CC23CN(C(=O)[C@H]2CC2(C)C)C3)no1)n1ccc(C2CCCC2)n1 (stereo partly drawn) [I-119, 2-(4-(8-(5-(1-(3-cyclopentyl-1H-pyrazol-1-yl)ethyl)-1,2,4-oxadiazol-3-yl)-2-((S)-2,2-dimethylcyclopropane-1-carbonyl)-2,6-diazaspiro[3.4]octane-6-carbonyl)-1H-pyrazol-1-yl)acetonitrile]	> 10	
> 10		O=C(c1cc(O)n[nH]1)N1CC(c2nnc(C(F)(F)c3ccc(Cl)c(Cl)c3)o2)C2(C1)CN(C(=O)[C@H]1CC1(F)F)C2 (stereo partly drawn) [I-120, (8-(5-((3,4-dichlorophenyl)difluoromethyl)-1,3,4-oxadiazol-2-yl)-2-((R)-2,2-difluorocyclopropane-1-carbonyl)-2,6-diazaspiro[3.4]octan-6-yl)(3-hydroxy-1H-pyrazol-5-yl)methanone]	> 10	
0.5 to 5		CC(c1nc(C2CN(C(=O)c3cnn(Cc4ccc(-c5nnn[nH]5)cc4)c3)CC23CN(C(=O)[C@H]2CC2(C)C)C3)no1)n1ccc(C2CCCC2)n1 (stereo partly drawn) [I-121, (1-(4-(1H-tetrazol-5-yl)benzyl)-1H-pyrazol-4-yl)(8-(5-(1-(3-cyclopentyl-1H-pyrazol-1-yl)ethyl)-1,2,4-oxadiazol-3-yl)-2-((S)-2,2-dimethylcyclopropane-1-carbonyl)-2,6-diazaspiro[3.4]octan-6-yl)methanone]	> 10	
5 to 10		CC(c1nc(C2CN(C(=O)c3cnn(Cc4ccc(C(=O)O)c(O)c4)c3)CC23CN(C(=O)[C@H]2CC2(C)C)C3)no1)n1ccc(C2CCCC2)n1 (stereo partly drawn) [I-122, 4-((4-(8-(5-(1-(3-cyclopentyl-1H-pyrazol-1-yl)ethyl)-1,2,4-oxadiazol-3-yl)-2-((S)-2,2-dimethylcyclopropane-1-carbonyl)-2,6-diazaspiro[3.4]octane-6-carbonyl)-1H-pyrazol-1-yl)methyl)-2-hydroxybenzoic acid]	> 10	
≤ 0.5		CC(c1nc(C2CN(C(=O)c3cnn(Cc4ccccc4C(=O)O)c3)CC23CN(C(=O)[C@H]2CC2(C)C)C3)no1)n1ccc(C2CCCC2)n1 (stereo partly drawn) [I-123]	> 10	
	0.01 to 0.1	C=C(c1ccc(C(F)(F)c2nnc(C3CN(C(=O)c4cncs4)CC34CN(C(=O)[C@H]3CC3(C)C)C4)o2)cc1)C(F)(F)F (stereo partly drawn) [I-198, (8-(5-(difluoro(4-(3,3,3-trifluoroprop-1-en-2-yl)phenyl)methyl)-1,3,4-oxadiazol-2-yl)-2-((S)-2,2-dimethylcyclopropane-1-carbonyl)-2,6-diazaspiro[3.4]octan-6-yl)(thiazol-5-yl)methanone]	0.5 to 5	
	> 10	CC1(C)C[C@@H]1C(=O)N1CC2(CN(C(=O)c3cnc(Br)s3)CC2c2nnc(C(F)(F)c3ccc(Cl)c(Cl)c3)o2)C1 (stereo partly drawn) [I-199]	5 to 10	
	> 10	CC(=O)N1CC(c2nnc(C(F)(F)c3ccc(Cl)c(Cl)c3)o2)C2(C1)CN(C(=O)[C@H]1CC1(C)C)C2 (stereo partly drawn) [I-200]	> 10	
	0.1 to 1	CC1(C)C[C@@H]1C(=O)N1CC2(CN(C(=O)c3cncs3)CC2c2ncc(Cc3ccc(C(F)(F)F)c(Cl)c3)o2)C1 (stereo partly drawn) [I-201, (8-(5-(3-chloro-4-(trifluoromethyl)benzyl)oxazol-2-yl)-2-((S)-2,2-dimethylcyclopropane-1-carbonyl)-2,6-diazaspiro[3.4]octan-6-yl)(thiazol-5-yl)methanone]	5 to 10	
	> 10	CC1(C)C[C@@H]1C(=O)N1CC2(CN(C(=O)c3cncs3)CC2c2cn(Cc3ccc(C(F)(F)F)cc3)nn2)C1 (stereo partly drawn) [I-202]	> 10	
	> 10	O=C(CC(F)(F)F)N1CC(c2nnc(C(F)(F)c3ccc(Cl)c(Cl)c3)o2)C2(C1)CN(C(=O)CC(F)(F)F)C2 (stereo not drawn) [I-203]	> 10	
	> 10	CC(=O)N1CC(c2nnc(C(F)(F)c3ccc(Cl)c(Cl)c3)o2)C2(C1)CN(C(C)=O)C2 (stereo not drawn) [I-204]	> 10	
	> 10	O=C(N1CC(c2nnc(C(F)(F)c3ccc(Cl)c(Cl)c3)o2)C2(C1)CN(C(=O)C(F)(F)F)C2)C(F)(F)F (stereo not drawn) [I-205, 1,1′-(8-(5-((3,4-dichlorophenyl)difluoromethyl)-1,3,4-oxadiazol-2-yl)-2,6-diazaspiro[3.4]octane-2,6-diyl)bis(2,2,2-trifluoroethan-1-one)]	5 to 10	

SMILES	IC50 [2] [µM]	IC50 [3] [µM]	IC50 ([1]; 72 h) [µM]	IC50 ([1]; 72 hours) [µM]
CC(c1nc(C2CN(C(=O)c3cnn(Cc4nnn[nH]4)c3)CC23CN(C(=O)[C@H]2CC2(C)C)C3)no1)n1ccc(C2CCCC2)n1 (stereo partly drawn) [I-114, (1-((1H-tetrazol-5-yl)methyl)-1H-pyrazol-4-yl)(8-(5-(1-(3-cyclopentyl-1H-pyrazol-1-yl)ethyl)-1,2,4-oxadiazol-3-yl)-2-((S)-2,2-dimethylcyclopropane-1-carbonyl)-2,6-diazaspiro[3.4]octan-6-yl)methanone]	0.5 to 5			> 10
